pIC50: −log10 of the molar value.
Test system: Mycobacterium tuberculosis H37Rv growth inhibition, no glycerol
Assay: Confirmatory growth inhibition assay, Mycobacterium tuberculosis H37Rv, absence of glycerol (AID 449764);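 note: growth read after 7 days of incubation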
Details: for IC90: measured here: IC90 growth inhibition

Cc1ccc2nc(/C(C#N)=C/c3cn[nH]c3-c3ccc(F)cc3)[nH]c2c1
pIC50: 4.72 | IC90: 25.4 µM

CCCCN1C(=O)C2(NNc3ccccc3O2)c2ccccc21 (stereo not given)
pIC50: 4.04 | IC90: > 100 µM

CC(C)COCc1ccc(O)c2ncccc12
pIC50: 5.66 | IC90: 2.59 µM

Cc1c(CN(C)C)c2c(n1Cc1ccccc1)C(=O)c1ccc(Br)cc1-2
pIC50: 4.62 | IC90: 27.8 µM

CCOc1ccc(OCCSc2ccc(S(=O)(=O)N3CCN(C)CC3)cn2)cc1
pIC50: 4.59 | IC90: 28.8 µM

CCCNC1=C(N(C(C)=O)c2cccc(F)c2)C(=O)c2ccccc2C1=O
pIC50: 4.92 | IC90: 15.6 µM

CCc1ccc(N=Nc2ccc(O)c3[nH]cnc23)cc1
pIC50: 4.39 | IC90: > 100 µM

COc1ccc(OCc2cccc(C(=O)Nn3cc([N+](=O)[O-])cn3)c2)cc1
pIC50: 4.58 | IC90: 42.9 µM

FC(F)(F)c1ccc(Nc2nnnc3ccccc23)cc1
pIC50: 4.31 | IC90: 55.3 µM

O=C1C2(Cl)C3(Cl)C4(Cl)C(Cl)(Cl)C5(Cl)C3(Cl)C1(Cl)C5(Cl)C24Cl (stereo not given)
pIC50: 4.35 | IC90: 65.2 µM

COc1ccc(C(=O)Cn2nc(CNc3ccc(Br)cc3)[n+]3c2CCCCC3)cc1
pIC50: 4.91 | IC90: 14.1 µM

CCOC(=O)Cc1csc(NC(=O)c2c(O)c3c(n(CC(C)C)c2=O)CCCC3)n1
pIC50: 4.73 | IC90: 36.7 µM

Cc1ccc(Cl)cc1N1CCN(C(=O)C2CCC(=O)N(C3CCCCCC3)C2)CC1 (stereo not given)
pIC50: 4.54 | IC90: 40.4 µM

COC(=O)CSc1nnc([C@H](CC(C)C)NC(=O)OC(C)(C)C)o1
pIC50: 4.66 | IC90: 29.9 µM

COc1ccc(SC[C@H](Cc2ccccc2)N2CCN(CCc3ccccc3)CCC2=O)cc1
pIC50: 4.39 | IC90: 51.4 µM

O=C(Nc1nc2nc(-c3ccccc3)cc(=O)n2[nH]1)c1ccccc1
pIC50: 4.64 | IC90: > 100 µM

COc1ccc(C2c3[nH]c4ccccc4c3CCN2C(=O)c2cc3ncccn3n2)c(F)c1 (stereo not given)
IC90: > 100 µM

Oc1ccc(CN2CCc3ccccc3C2)c2cccnc12
pIC50: 4.14 | IC90: > 100 µM

O=C(CSC1=NC(=O)C(c2ccccc2)C(=O)N1)Nc1ccccc1Cl (stereo not given)
pIC50: 5.14 | IC90: 24.2 µM

O=C(c1cc2nc(-c3ccc(F)cc3)cc(C(F)(F)F)n2n1)N1CCCCC1c1cccnc1 (stereo not given)
pIC50: 4.68 | IC90: 29.2 µM

COc1cccc2sc3ccc(C#CC4(N)CCCCC4)cc3c(=O)c12
pIC50: 4.13 | IC90: > 100 µM

O=C(NCCc1ccccc1)[C@@H]1CC=C[C@@H]2CCN(Cc3ccc(Cl)c(Cl)c3)C(=O)[C@@H]21
pIC50: 4.20 | IC90: 85.5 µM

Cc1ccc2nc(-c3ccncc3)cc(-c3ccccc3)c2c1
pIC50: 4.36 | IC90: 48.6 µM

O=C(Nc1nc(-c2cc(Cl)sc2Cl)cs1)c1cccs1
pIC50: 4.17 | IC90: > 100 µM

CN(C)c1ccc(/C=C2\N=C(C(C)(C)C)OC2=O)cc1
pIC50: 4.07 | IC90: > 100 µM

COc1ccc(C2=Nn3c(nnc3-c3ccccc3F)SC2)cc1OC1CCCC1
pIC50: 4.71 | IC90: 25.4 µM

COc1cccc(C(=O)NC2CC3CCCC(C2)N3CC(=O)Nc2ccc(N(C)C)cc2)c1 (stereo not given)
pIC50: 4.66 | IC90: 24.4 µM

CN1/C(=C/C(=O)c2nc(S(C)(=O)=O)ncc2Cl)C(C)(C)c2ccccc21
pIC50: 5.17 | IC90: 13.1 µM

COC(=O)c1ccc(Cn2cc(C(F)(F)F)cc([N+](=O)[O-])c2=O)cc1
pIC50: 6.20 | IC90: > 100 µM

Oc1c(C(c2ccccc2Cl)N2CCCC2)ccc2cccnc12 (stereo not given)
pIC50: 4.51 | IC90: 37.7 µM

Cc1nn(CCc2nn[nH]n2)c2nc(-c3ccc(Br)cc3)cc(C(F)(F)F)c12
pIC50: 5.08 | IC90: 16.8 µM

Cc1ccc(C(=O)C[n+]2cc(-c3ccc(C)cc3)n3c2CCCCC3)cc1
pIC50: 4.65 | IC90: 25.4 µM

COc1cc(C(=O)N/N=C/c2cc([N+](=O)[O-])cs2)cc(OC)c1OC
pIC50: 5.07 | IC90: > 100 µM

O=C(O)c1ccc(N2C(=O)/C(=C/c3ccc(-c4ccc([N+](=O)[O-])cc4)o3)C=C2c2ccccc2)cc1
pIC50: 4.30 | IC90: > 100 µM

O=[N+]([O-])c1ccc(S(=O)(=O)c2ccccc2)nc1
pIC50: 5.75 | IC90: 2.98 µM

CCOC(=O)[C@@H]1[C@H]2COc3cc(OC)ccc3[C@H]2N2C(=O)N(c3ccc(C(F)(F)F)cc3)C(=O)[C@]12C
pIC50: 5.24 | IC90: 6.27 µM

CC1(C)c2cc(Cl)ccc2-n2c1cc(O)c(-c1ccccc1)c2=O
pIC50: 5.06 | IC90: 18.1 µM

Cc1ccc(C2=NNC3(CCOC(C)(C)C3)S2)cc1 (stereo not given)
pIC50: 4.57 | IC90: 41.3 µM

NC(=O)c1cccn1-c1ncc(C(F)(F)F)cc1Cl
pIC50: 4.84 | IC90: 28.1 µM

CCOC(=O)CSc1nnc(-c2c[nH]c3ccccc23)o1
pIC50: 5.06 | IC90: 22.1 µM

C[n+]1c(-c2ccccc2)cc(CCCCc2cc(-c3ccccc3)[n+](C)c(-c3ccccc3)c2)cc1-c1ccccc1
pIC50: 4.61 | IC90: 28.3 µM

C=CCN(C(=O)CSc1nc2c(sc3ccccc32)c(=O)n1CCN(CC)CC)c1ccccc1
pIC50: 4.51 | IC90: 38.8 µM

CN1CCN(c2ccc(S(=O)(=O)N3CCCCC3)cc2NC(=O)/C=C/c2ccc(Cl)c([N+](=O)[O-])c2)CC1
pIC50: 4.46 | IC90: 47.6 µM

From PubChem BioAssay AID449764 (Southern Research Specialized Biocontainment Screening …, 2010)
